Consider two molecules from paper PMC12508057, “Discovery of ETI41 and ETI60: novel selective endosomal Toll-like receptor inhibitors for the treatment of autoimmune diseases” (Experimental & Molecular Medicine, 2025).

Where two headings read alike, the source gives them in different places.

This assay has as its target T1, TLR9 (Mus musculus, UniProt Q9EQU3).
T1 construct: endogenous in cells; host or cells: RAW 264.7
T1 sequence (Q9EQU3 26-1032): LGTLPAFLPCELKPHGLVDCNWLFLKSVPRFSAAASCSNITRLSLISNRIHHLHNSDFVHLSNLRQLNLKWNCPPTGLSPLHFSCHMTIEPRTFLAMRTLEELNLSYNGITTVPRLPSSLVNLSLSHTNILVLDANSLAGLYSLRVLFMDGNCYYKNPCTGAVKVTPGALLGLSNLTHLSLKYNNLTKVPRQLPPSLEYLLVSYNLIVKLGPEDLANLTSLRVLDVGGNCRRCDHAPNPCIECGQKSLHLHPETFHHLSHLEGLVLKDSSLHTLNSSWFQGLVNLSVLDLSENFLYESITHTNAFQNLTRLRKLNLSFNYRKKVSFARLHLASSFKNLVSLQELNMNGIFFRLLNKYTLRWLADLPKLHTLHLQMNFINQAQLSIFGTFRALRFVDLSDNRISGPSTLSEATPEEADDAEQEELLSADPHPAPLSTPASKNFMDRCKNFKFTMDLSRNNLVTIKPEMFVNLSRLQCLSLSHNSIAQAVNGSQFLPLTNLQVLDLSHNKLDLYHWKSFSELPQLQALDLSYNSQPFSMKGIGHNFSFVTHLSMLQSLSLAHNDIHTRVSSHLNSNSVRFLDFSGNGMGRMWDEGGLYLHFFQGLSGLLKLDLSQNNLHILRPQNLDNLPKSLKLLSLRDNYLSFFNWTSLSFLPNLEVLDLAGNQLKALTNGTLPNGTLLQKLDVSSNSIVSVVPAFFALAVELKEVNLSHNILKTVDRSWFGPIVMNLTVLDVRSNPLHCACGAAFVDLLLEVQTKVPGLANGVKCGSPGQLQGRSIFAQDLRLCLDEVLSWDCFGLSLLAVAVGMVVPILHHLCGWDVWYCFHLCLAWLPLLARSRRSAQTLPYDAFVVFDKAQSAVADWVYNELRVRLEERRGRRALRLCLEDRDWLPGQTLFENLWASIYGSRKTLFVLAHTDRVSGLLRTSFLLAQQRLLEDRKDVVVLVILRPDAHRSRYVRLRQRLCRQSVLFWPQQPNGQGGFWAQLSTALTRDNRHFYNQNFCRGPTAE
In words: TLR9 inhibition, TNF-α secretion (ELISA) in RAW 264.7. The class given is cell-based. The conditions noted are these: for TLR9 TI value: therapeutic index, RAW 264.7. The procedure: RAW 264.7 and differentiated THP-1 cells were seeded into 96-well plates at 2 × 10^4 cells per well, while Daudi cells were seeded at 5 × 10^4 cells per well. After stabilization for 30 min, cells were stimulated with specific TLR agonists for 4 or 24 h. Supernatants were diluted and transferred to precoated ELISA plates to measure TNF-α secretion using kits from Invitrogen. Optical absorbance was measured using a BioTek Synergy HTX multimode microplate reader, and data were interpolated using BioTek Gen5 software.
One-tailed paired Student’s t-tests were performed using Microsoft Excel (Microsoft). Semi-logarithmic conversions and nonregression curve analyses for calculating 50% lethal concentration (LC50) and 50% inhibitory concentration (IC50) values were conducted using GraphPad Prism 7.0 (GraphPad). The therapeutic index was calculated as […]. Animal experimental results are expressed as mean ± standard deviation and analyzed using SPSS v.20 (IBM SPSS Statistics). Homogeneity of variance was assessed using Levene’s test.
The cells were activated with agonistic ligands: […], TLR3 (poly I:C, 2 μg/ml, 24 h), TLR4 (LPS, 10 or 100 ng/ml, 4 h), TLR5 (FLA-ST, 500 ng/ml, 4 h), TLR7 (ORN06/LyoVec, 2 μg/ml, 24 h; and IMQ, 1 μg/ml, 4 h), TLR8 (TL8-506, 2 μg/ml, 24 h) and TLR9 (ODN2395, 1 μM, 4 h) at various concentrations in RAW 264.7 cells, human Daudi cells and THP-1 cells. Data are from at least three independent experiments (n = 3) and statistical differences between the induced case and other cases were analyzed and verified using a one-tailed Student’s t-test (*P < 0.05, **P < 0.01, ***P < 0.001).

With `Cc1cc2c(N)c3c(nc2n1CCCN(C)C)CCCCCC3` [ETI41], the IC50 (in general, the concentration needed to halve the response being measured) came to 160 nM and the “TLR9 TI value” amounted to 419.88.
Regarding `COc1ccc2c3c(N)c4c(nc3n(CCCN(C)C)c2c1)CCCC4` [ETI60], the “TLR9 TI value” amounted to 422.71. Besides, the IC50 (RAW 264.7 cell line, read-out: TLR9 IC50 (mTNFα)) is 120 nM.
